Consider 14 compounds from PMC3001719, “The heme sensing response regulator HssR in Staphylococcus aureus but not the homologous RR23 in Listeria monocytogenes modulates susceptibility to the antimicrobial peptide plectasin” (BMC Microbiology, 2010).

Test [1] concerns S. aureus wild type and response regulator mutants. The test can be described thus: Antibiotic susceptibility, commercial MIC technique (Trek). The test is classed as cell-based, Staphylococcus aureus. As to conditions: dehydrated antimicrobials in microtitre wells, data not shown. As for the experimental part:
(§1) Antimicrobial susceptibility to ampicillin, gentamicin, sulfa/trimethoprim, rifampicin, tetracycline, amoxy/clavulan, cephalotin, clindamycin, enrofloxacin, fusidic acid and oxacillin was performed with a commercially available MIC technique using dehydrated antimicrobials in microtitre wells (Trek Diagnostic Systems Ltd., UK).

Test [2] has as its system L. monocytogenes wild type and response regulator mutant. The test is described as above. The test is classed as cell-based, Listeria monocytogenes. As to conditions: dehydrated antimicrobials in microtitre wells, data not shown. On the procedure: as §1
In test [3] the test system is S. aureus. Description: ATP leakage (intracellular and extracellular ATP, bioluminescence). The test is classed as cell-based, Staphylococcus aureus. As to conditions: 50 mM HEPES pH 7.0 with 0.2% glucose, vs peptide dilution buffer, two independent experiments; for ATP leakage: S. aureus, 1,000 μg/ml peptide. On the procedure: (§2) L. monocytogenes and S. aureus were grown in TSB at 37°C. Bacteria were harvested (10 min at 3000 RPM) at mid-exponential phase (absorbance at 546 nm of 2.5 ± 0.2 and 1.0 ± 0.2 for S. aureus and L. monocytogenes, respectively), washed once in 50 mM potassium phosphate buffer pH 7.0 and once in 50 mM HEPES buffer pH 7.0. The pellet was resuspended in 50 mM HEPES pH 7.0 to a final absorbance at 546 nm of 10. Bacteria were stored on ice and used within 5 hours. […] ATP was determined using a bioluminescence kit (Sigma, FLAA-1KT) and a BioOrbit 1253 luminometer. Total ATP content was determined by rapidly permeabilising 20 μl cell suspension with 80 μl dimethyl sulfoxide. The cell suspension was diluted in 4.9 ml sterile water, and ATP content was determined in 100 μl of the preparation as described by the manufacturer. To determine the extracellular ATP concentration, the 20 μl cell suspension was mixed with 80 μl sterile water and analyzed as described above. Intracellular ATP concentrations were calculated by using the intracellular volumes of 0.85 and 1.7 μm^3 for S. aureus and L. monocytogenes, respectively. The number of cells in suspension was determined by plate spreading.

The subject of test [4] is S. aureus 8325-4 hssR (transduced mutant). Description: MIC, microbroth dilution. The test is classed as cell-based, Staphylococcus aureus. As to conditions: transduced 8325-4 hssR mutant, MHB pH 7.4, 5.0 × 10^5 CFU/ml, 18-24 h at 37°C, visual growth. On the procedure: (§3) Protamine was purchased from Sigma (P4020-5G). Plectasin, eurocin, novicidin, and novispirin G10 were supplied by Department of Antiinfective Discovery, Novozymes A/S. The host defence peptides were dissolved in 0.01% acetic acid/0.1% bovine serum albumin (Sigma, A7906).
(§4) Minimal inhibitory concentrations (MIC) of plectasin, eurocin, protamine, novicidin, and novispirin G10 were determined using a microbroth dilution method. Colonies from a BHI plate incubated overnight at 37 °C were suspended in MHB pH 7.4 to an absorbance at 546 nm of 0.11-0.12 at 546 nm (approx. 1.0 × 10^8 CFU/ml) and diluted in MHB to a concentration of 5.0 × 10^5 CFU/ml. Ninety μl of bacterial suspension was incubated with 10 μl of peptide solution in polypropylene 96-well plates (Nunc, 442587) for 18-24 h at 37°C. The peptide solutions were made fresh on the day of assay. The range of concentrations assayed were 0.25-256 μg/ml for plectasin and eurocin, 0.125-128 μg/ml for protamine and novispirin G10, and 0.031-32 μg/ml for novicidin. MIC was the lowest peptide concentration at which visual growth was inhibited.
(In general: In broth dilution the organism is exposed to a series of concentrations in liquid medium.)

Test [5] concerns S. aureus 8325-4 hssR::bursa transposon mutant. Description: MIC, microbroth dilution. The test is classed as cell-based, Staphylococcus aureus. As to conditions: MHB pH 7.4, 5.0 × 10^5 CFU/ml, 18-24 h at 37°C, visual growth. As for the experimental part:
as §3, §4

For test [6], the system named is S. aureus 8325-4 wild type. Description: MIC, microbroth dilution. As to conditions: MHB pH 7.4, 5.0 × 10^5 CFU/ml, 18-24 h at 37°C, visual growth. The format is cell-based, Staphylococcus aureus. As for the experimental part:
as §3, §4

Test [7] relates to S. aureus 8325-4 hssR::bursa/pRMC2-hssRS (complementation of hssR transposon mutant). The test can be described thus: MIC, microbroth dilution. The test is classed as cell-based, Staphylococcus aureus. As to conditions: 8325-4 hssR::bursa/pRMC2-hssRS complemented mutant; microbroth dilution, MHB pH 7.4, 5.0 × 10^5 CFU/ml, 18-24 h at 37°C, visual growth. As for the experimental part: as §3, §4

Test [8] has as its system S. aureus 15981 wild type. The test can be described thus: MIC, microbroth dilution. The format is cell-based, Staphylococcus aureus. As to conditions: MHB pH 7.4, 5.0 × 10^5 CFU/ml, 18-24 h at 37°C, visual growth. On the procedure: as §3, §4
Test [9] relates to S. aureus 15981 ΔTCS15 (hssRS) deletion mutant. Description: MIC, microbroth dilution. As to conditions: MHB pH 7.4, 5.0 × 10^5 CFU/ml, 18-24 h at 37°C, visual growth. The format is cell-based, Staphylococcus aureus. On the procedure:
as §3, §4

In test [10] the test system is L. monocytogenes. Description: ATP leakage (intracellular and extracellular ATP, bioluminescence). As to conditions: 50 mM HEPES pH 7.0 with 0.2% glucose, vs peptide dilution buffer; for ATP leakage: L. monocytogenes, 1,000 μg/ml peptide. The test is classed as cell-based, Listeria monocytogenes. As for the experimental part:
as §2

Test [11] has as its system plasmid DNA (pBluescript II SK+). The test can be described thus: DNA-binding analysis by in vitro gel retardation. As to conditions: 100 ng plasmid DNA with increasing amounts of peptide, 1 h at room temperature, data not shown. On the procedure:
Gel retardation analysis were performed as described by Nan et al by mixing 100 ng of plasmid DNA (pBluescript II SK^+(Stratagene)) with increasing amounts of peptide in 20 μl binding buffer (5% glycerol, 10 mM Tris, 1 mM EDTA, 1 mM dithiothreitol, 20 mM KCL and 50 μg ml^-1 bovine serum albumin). Reaction mixtures were incubated 1 h at room temperature and subjected to 1% agarose gel electrophoresis and visualised using ethidium bromide.

The test system of test [12] is L. monocytogenes LO28 wild type. Description: MIC, microbroth dilution. The test is classed as cell-based, Listeria monocytogenes. As to conditions: MHB pH 7.4, 5.0 × 10^5 CFU/ml, 18-24 h at 37°C, visual growth. On the procedure:
as §3, §4

For test [13], the system named is S. aureus 8325-4 wild type. Description: Growth in TSB with plectasin and/or hemin. As to conditions: hemin 4 μM, 37°C, absorbance at 600 nm. The test is classed as cell-based, Staphylococcus aureus. As for the experimental part: (§5) Overnight cultures of S. aureus were diluted to an absorbance at 600 nm of 0.05 in TSB with and without 4 μM hemin and/or 35 μg/ml plectasin and grown at 37°C. Measurements of the absorbance were made every 30 minutes.

Test [14] deals with S. aureus 8325-4 hssR mutant. The test can be described thus: Growth in TSB with plectasin and/or hemin. As to conditions: hemin 4 μM, 37°C, with or without plectasin, hssR mutant. The test is classed as cell-based, Staphylococcus aureus. As for the experimental part: as §5
In test [15] the test system is hrtAB efflux system expression. As to conditions: exposure to hemin, transcriptional activation by HssR; cited from earlier work. The source says: Both HrtAB and HssRS are required for growth of S. aureus in hemin [14].
The subject of test [16] is L. monocytogenes LO28 RR23 (rr23 insertion mutant). The test can be described thus: MIC, microbroth dilution. The test is classed as cell-based, Listeria monocytogenes. As to conditions: MHB pH 7.4, 5.0 × 10^5 CFU/ml, 18-24 h at 37°C, visual growth. On the procedure: as §3, §4

Consider `CC1(C)S[C@@H]2[C@H](NC(=O)[C@H](N)c3ccccc3)C(=O)N2[C@H]1C(=O)O` [ampicillin], for which the “Change in MIC, wild type vs response regulator mutants” value in [1] was “No change in MIC values”. Further, in test [2], the “Change in MIC, wild type vs response regulator mutant” value is “No change in MIC values”.

For `CC(=O)OCC1=C(C(=O)O)N2C(=O)[C@@H](NC(=O)Cc3cccs3)[C@H]2SC1` [cephalotin], the “Change in MIC, wild type vs response regulator mutants” value in test [1] is “No change in MIC values”. In [2], the “Change in MIC, wild type vs response regulator mutant” value is reported as “No change in MIC values”.

For the compound `CCC[C@@H]1C[C@@H](C(=O)N[C@@H]([C@H]2O[C@H](SC)[C@H](O)[C@@H](O)[C@H]2O)[C@H](C)Cl)N(C)C1` [clindamycin], the “Change in MIC, wild type vs response regulator mutants” value in test [1] was “No change in MIC values”. Further, the “Change in MIC, wild type vs response regulator mutant” value in test [2] is recorded as “No change in MIC values”.

For the compound `CCN1CCN(c2cc3c(cc2F)c(=O)c(C(=O)O)cn3C2CC2)CC1` [enrofloxacin], the “Change in MIC, wild type vs response regulator mutants” value in [1] is on record as “No change in MIC values”. Further, in test [2], the “Change in MIC, wild type vs response regulator mutant” value is listed as “No change in MIC values”.

Regarding `CC(=O)O[C@H]1C[C@@]2(C)[C@@H](C[C@@H](O)[C@H]3[C@@]4(C)CC[C@@H](O)[C@@H](C)[C@@H]4CC[C@@]32C)/C1=C(\CCC=C(C)C)C(=O)O` [fusidic acid], in test [1], the “Change in MIC, wild type vs response regulator mutants” value is “No change in MIC values”. Further, the “Change in MIC, wild type vs response regulator mutant” value in [2] was “No change in MIC values”.

Consider `CNC(C)C1CCC(N)C(OC2C(N)CC(N)C(OC3OCC(C)(O)C(NC)C3O)C2O)O1` (centres unmarked) [gentamicin], for which, in [1], the “Change in MIC, wild type vs response regulator mutants” value is “No change in MIC values”. In addition, in test [2], the “Change in MIC, wild type vs response regulator mutant” value is recorded as “No change in MIC values”.

Turning to `Cc1onc(-c2ccccc2)c1C(=O)N[C@@H]1C(=O)N2[C@@H]1SC(C)(C)[C@@H]2C(=O)O` [oxacillin], the “Change in MIC, wild type vs response regulator mutants” value in test [1] is listed as “No change in MIC values”. In test [2], the “Change in MIC, wild type vs response regulator mutant” value is listed as “No change in MIC values”.

For the compound `CO[C@H]1/C=C/O[C@@]2(C)Oc3c(C)c(O)c4c(O)c(c(/C=N/N5CCN(C)CC5)c(O)c4c3C2=O)NC(=O)/C(C)=C\C=C\[C@H](C)[C@H](O)[C@@H](C)[C@@H](O)[C@@H](C)[C@H](OC(C)=O)[C@@H]1C` [rifampicin], in test [1], the “Change in MIC, wild type vs response regulator mutants” value is given as “No change in MIC values”. The “Change in MIC, wild type vs response regulator mutant” value in test [2] was “No change in MIC values”.

`CN(C)[C@@H]1C(O)=C(C(N)=O)C(=O)[C@@]2(O)C(O)=C3C(=O)c4c(O)cccc4[C@@](C)(O)[C@H]3C[C@@H]12` [tetracycline]: the “Change in MIC, wild type vs response regulator mutants” value in test [1] is “No change in MIC values”. Besides, in test [2], the “Change in MIC, wild type vs response regulator mutant” value was “No change in MIC values”.

As for eurocin, the “ATP leakage (intracellular ATP concentration)” value is listed as “remained at the same level as the controls” in test [3] (S. aureus, 500 μg/ml peptide) and “remained at the same level as the controls” in test [10] (L. monocytogenes, 500 μg/ml peptide). For the same compound, the minimal inhibitory concentration (MIC) (usually the least concentration at which growth counts as inhibited) in test [4] came out at 64 µg/mL; in [5] it was 64 µg/mL; in test [6] it was 32 µg/mL; in test [7], 32 µg/mL; in test [8], 8 µg/mL; in [9], 32 µg/mL. This compound yielded an MIC in test [12] of 128 µg/mL. In addition, the “Binding to DNA” value in test [11] is recorded as “unable to demonstrate binding”.

For the compound hemin, the “Growth in the presence of hemin” value is “only affected by plectasin (35 μg/ml) and not hemin” in [13]; “almost completely inhibited” in test [14]. Moreover, the “Increase of expression of hrtAB efflux system” value in [15] is given as 45 fold.

novicidin: the ATP leakage result in test [3] and in [10] was “increased ATP leakage” throughout. The MIC in [4], in test [5], in test [6], in [8], in [9] and in [12] was 1 µg/mL in each case. The compound also yielded a minimal inhibitory concentration (MIC) in test [16] of 1 µg/mL.

For the compound novispirin G10, the MIC is 128 µg/mL in test [6], greater than 128 µg/mL in test [8], 16 µg/mL in test [12] and 16 µg/mL in [16].

As to protamine, the ATP leakage result in test [3] and in [10] was “increased ATP leakage” in each case. The minimal inhibitory concentration (MIC) in test [4], in test [5], in test [6], in test [8], in [9] and in test [12] was 16 µg/mL throughout. This compound also registered a minimum inhibitory concentration (MIC) in test [16] of 16 µg/mL.
